{
  "source": "ChEMBL document CHEMBL5346907",
  "about": "“Discovery of a novel oral type Ⅰ CDK8 inhibitor against acute myeloid leukemia” (Eur J Med Chem, 2023)",
  "key": {"[1]": {"experiment": "MRT in Sprague-Dawley rat at 2 mg/kg, iv", "type": "ADME, organism-based", "settings": "in vivo"}, "HL-60 [2]": {"system": "HL-60", "experiment": "Induction of apoptosis in human HL-60 cells assessed as viable cells at 10 uM incubated for 48 hrs by annexin V-FITC/PI staining based flow cytometry (reference value: 96.5 %)", "type": "functional", "settings": "read-out: Activity"}, "[3]": {"molecular_target": "Tyrosine-protein kinase HCK (Homo sapiens) (UniProt P08631)", "sequence (P08631 2-526 limits assumed)": "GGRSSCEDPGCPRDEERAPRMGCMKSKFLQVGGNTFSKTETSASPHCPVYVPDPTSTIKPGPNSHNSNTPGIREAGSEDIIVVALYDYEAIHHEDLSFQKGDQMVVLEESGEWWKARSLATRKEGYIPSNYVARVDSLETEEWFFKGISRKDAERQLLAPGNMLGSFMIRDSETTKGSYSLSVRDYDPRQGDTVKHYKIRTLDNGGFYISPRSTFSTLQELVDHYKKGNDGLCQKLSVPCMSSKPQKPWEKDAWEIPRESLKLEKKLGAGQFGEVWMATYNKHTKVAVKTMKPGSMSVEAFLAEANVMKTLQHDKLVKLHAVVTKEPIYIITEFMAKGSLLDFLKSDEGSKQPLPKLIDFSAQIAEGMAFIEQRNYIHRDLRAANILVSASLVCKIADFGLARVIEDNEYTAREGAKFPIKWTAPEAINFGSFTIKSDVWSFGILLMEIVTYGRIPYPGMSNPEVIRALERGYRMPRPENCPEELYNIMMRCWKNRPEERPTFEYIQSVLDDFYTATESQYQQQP", "experiment": "Inhibition of HCK (unknown origin) at 1 uM preincubated for 10 mins followed by substrate addition measured for 60 to 120 mins by HTRF assay relative to control", "settings": "time 70-130 min"}, "[4]": {"molecular_target": "ALK tyrosine kinase receptor (Homo sapiens) (UniProt Q9UM73)", "experiment": "Inhibition of ALK (unknown origin) at 1 uM preincubated for 10 mins followed by substrate addition measured for 60 to 120 mins by HTRF assay relative to control", "settings": "time 70-130 min"}, "[5]": {"molecular_target": "Ephrin type-A receptor 2 (Homo sapiens) (UniProt P29317)", "sequence (P29317 whole entry)": "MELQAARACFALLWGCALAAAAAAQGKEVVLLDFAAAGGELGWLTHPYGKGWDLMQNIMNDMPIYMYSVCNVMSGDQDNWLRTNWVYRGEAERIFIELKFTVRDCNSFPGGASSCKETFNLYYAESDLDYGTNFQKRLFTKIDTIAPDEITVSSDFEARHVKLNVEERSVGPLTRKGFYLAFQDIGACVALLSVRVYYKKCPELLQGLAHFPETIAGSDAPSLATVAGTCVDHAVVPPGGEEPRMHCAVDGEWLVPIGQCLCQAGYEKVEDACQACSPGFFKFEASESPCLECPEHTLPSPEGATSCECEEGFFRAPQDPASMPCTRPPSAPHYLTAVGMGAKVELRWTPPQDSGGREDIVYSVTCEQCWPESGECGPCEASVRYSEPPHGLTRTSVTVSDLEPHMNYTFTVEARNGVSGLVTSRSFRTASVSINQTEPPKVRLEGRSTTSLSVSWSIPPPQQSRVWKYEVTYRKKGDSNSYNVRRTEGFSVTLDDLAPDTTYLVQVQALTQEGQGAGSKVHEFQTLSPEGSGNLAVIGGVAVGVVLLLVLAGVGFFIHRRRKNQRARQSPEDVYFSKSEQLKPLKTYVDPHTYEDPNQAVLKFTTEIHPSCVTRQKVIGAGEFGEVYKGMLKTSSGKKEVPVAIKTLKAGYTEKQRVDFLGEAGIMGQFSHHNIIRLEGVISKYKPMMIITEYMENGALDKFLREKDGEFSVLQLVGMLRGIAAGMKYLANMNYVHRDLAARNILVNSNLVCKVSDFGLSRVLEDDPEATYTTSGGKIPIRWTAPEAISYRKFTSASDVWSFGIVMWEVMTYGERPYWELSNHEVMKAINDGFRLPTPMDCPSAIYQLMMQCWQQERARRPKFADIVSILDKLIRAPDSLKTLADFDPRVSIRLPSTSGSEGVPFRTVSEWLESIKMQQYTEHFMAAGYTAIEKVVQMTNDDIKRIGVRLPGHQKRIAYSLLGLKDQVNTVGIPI", "experiment": "Inhibition of EPHA2 (unknown origin) at 1 uM preincubated for 10 mins followed by substrate addition measured for 60 to 120 mins by HTRF assay relative to control", "settings": "time 70-130 min"}, "[6]": {"molecular_target": "Fibroblast growth factor receptor 4 (Homo sapiens) (UniProt P22455)", "experiment": "Inhibition of FGFR4 (unknown origin) at 1 uM preincubated for 10 mins followed by substrate addition measured for 60 to 120 mins by HTRF assay relative to control", "settings": "time 70-130 min"}, "[7]": {"molecular_target": "CDK2/Cyclin A2 (Homo sapiens) (UniProt P24941+P20248)", "experiment": "Inhibition of CDK2/Cyclin A2 (unknown origin) at 1 uM preincubated for 10 mins followed by substrate addition measured for 60 to 120 mins by HTRF assay relative to control", "type": "protein-complex assay", "settings": "time 70-130 min"}, "[8]": {"molecular_target": "Hepatocyte growth factor receptor (Homo sapiens) (UniProt P08581)", "experiment": "Inhibition of MET (unknown origin) at 1 uM preincubated for 10 mins followed by substrate addition measured for 60 to 120 mins by HTRF assay relative to control", "settings": "time 70-130 min"}, "[9]": {"molecular_target": "T1, Cyclin-dependent kinase 8 (Homo sapiens, UniProt P49336)", "T1 sequence (P49336 whole entry)": "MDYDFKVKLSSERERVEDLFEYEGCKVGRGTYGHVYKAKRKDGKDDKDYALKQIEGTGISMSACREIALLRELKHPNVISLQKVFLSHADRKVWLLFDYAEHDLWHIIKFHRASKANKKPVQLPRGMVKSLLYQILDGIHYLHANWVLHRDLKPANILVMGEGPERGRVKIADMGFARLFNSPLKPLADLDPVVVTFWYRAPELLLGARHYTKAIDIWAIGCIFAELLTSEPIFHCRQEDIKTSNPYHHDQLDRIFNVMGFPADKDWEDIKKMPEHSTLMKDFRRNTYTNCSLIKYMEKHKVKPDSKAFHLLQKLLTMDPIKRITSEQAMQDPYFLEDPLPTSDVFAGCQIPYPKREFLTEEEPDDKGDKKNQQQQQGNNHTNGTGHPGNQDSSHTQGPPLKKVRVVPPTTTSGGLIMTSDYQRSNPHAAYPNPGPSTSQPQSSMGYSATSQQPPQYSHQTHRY", "experiment": "Binding affinity to CDK8 in human HCT-116 cells assessed as increase in degradation temperature of protein at 5 uM incubated for 6 hrs followed by heating for 4 mins by CETSA assay (reference value: 55 degreeC)", "type": "cell-based", "settings": "time 6.06 hrs"}, "[10]": {"molecular_target": "Receptor tyrosine-protein kinase erbB-4 (Homo sapiens) (UniProt Q15303)", "experiment": "Inhibition of HER4 (unknown origin) at 1 uM preincubated for 10 mins followed by substrate addition measured for 60 to 120 mins by HTRF assay relative to control", "settings": "time 70-130 min"}, "[11]": {"molecular_target": "T1, Cyclin-dependent kinase 8", "experiment": "Binding affinity to CDK8 in human HCT-116 cells upto 4 uM incubated for 12 hrs by biotin pull down based Western blot analysis", "type": "cell-based"}, "[12]": {"molecular_target": "High affinity nerve growth factor receptor (Homo sapiens) (UniProt P04629)", "experiment": "Inhibition of TRKA (unknown origin) at 1 uM preincubated for 10 mins followed by substrate addition measured for 60 to 120 mins by HTRF assay relative to control", "settings": "time 70-130 min"}, "[13]": {"molecular_target": "Vascular endothelial growth factor receptor 3 (Homo sapiens) (UniProt P35916)", "experiment": "Inhibition of FLT4 (unknown origin) at 1 uM preincubated for 10 mins followed by substrate addition measured for 60 to 120 mins by HTRF assay relative to control", "settings": "time 70-130 min"}, "[14]": {"molecular_target": "CDK1/Cyclin E (Homo sapiens) (UniProt P06493+P24864)", "experiment": "Inhibition of CDK1/Cyclin E1 (unknown origin) at 1 uM preincubated for 10 mins followed by substrate addition measured for 60 to 120 mins by HTRF assay relative to control", "type": "protein-complex assay", "settings": "time 70-130 min"}, "[15]": {"molecular_target": "Tyrosine-protein kinase receptor TYRO3 (Homo sapiens) (UniProt Q06418)", "experiment": "Inhibition of TYRO3 (unknown origin) at 1 uM preincubated for 10 mins followed by substrate addition measured for 60 to 120 mins by HTRF assay relative to control", "settings": "time 70-130 min"}, "[16]": {"molecular_target": "Protein-tyrosine kinase 6 (Homo sapiens) (UniProt Q13882)", "sequence (Q13882 whole entry, looked up)": "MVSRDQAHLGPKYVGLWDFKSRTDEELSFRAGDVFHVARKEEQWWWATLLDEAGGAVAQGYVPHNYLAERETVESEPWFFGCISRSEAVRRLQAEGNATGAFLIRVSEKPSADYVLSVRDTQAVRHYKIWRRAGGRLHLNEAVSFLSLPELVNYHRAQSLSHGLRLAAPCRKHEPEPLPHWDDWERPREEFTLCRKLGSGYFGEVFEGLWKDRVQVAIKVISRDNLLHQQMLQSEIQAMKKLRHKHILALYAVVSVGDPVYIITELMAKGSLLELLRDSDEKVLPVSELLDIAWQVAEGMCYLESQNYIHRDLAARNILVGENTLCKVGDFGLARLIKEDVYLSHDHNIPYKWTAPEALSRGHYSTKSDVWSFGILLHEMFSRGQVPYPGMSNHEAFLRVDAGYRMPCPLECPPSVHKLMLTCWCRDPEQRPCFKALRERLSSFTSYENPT", "experiment": "Inhibition of BRK (unknown origin) at 1 uM preincubated for 10 mins followed by substrate addition measured for 60 to 120 mins by HTRF assay relative to control", "settings": "time 70-130 min"}, "C1498": {"system": "C1498", "experiment": "Downregulation of STAT1 S727 phosphorylation in mouse C1498 cells allografted in AML Balb/C mouse model at 40 to 80 mg/kg, po administered daily for 15 days measured after 3 weeks by IHC analysis", "type": "functional, organism-based", "settings": "dose 40-80 mg/kg, time 15.0 day"}, "[17]": {"molecular_target": "CDK4/Cyclin D3 (Homo sapiens) (UniProt P11802+P30281)", "experiment": "Inhibition of CDK4/Cyclin D3 (unknown origin) at 1 uM preincubated for 10 mins followed by substrate addition measured for 60 to 120 mins by HTRF assay relative to control", "type": "protein-complex assay", "settings": "time 70-130 min"}, "[18]": {"molecular_target": "Activated CDC42 kinase 1 (Homo sapiens) (UniProt Q07912)", "experiment": "Inhibition of ACK (unknown origin) at 1 uM preincubated for 10 mins followed by substrate addition measured for 60 to 120 mins by HTRF assay relative to control", "settings": "time 70-130 min"}, "[19]": {"molecular_target": "Insulin receptor (Homo sapiens) (UniProt P06213)", "sequence (P06213 28-758 limits assumed)": "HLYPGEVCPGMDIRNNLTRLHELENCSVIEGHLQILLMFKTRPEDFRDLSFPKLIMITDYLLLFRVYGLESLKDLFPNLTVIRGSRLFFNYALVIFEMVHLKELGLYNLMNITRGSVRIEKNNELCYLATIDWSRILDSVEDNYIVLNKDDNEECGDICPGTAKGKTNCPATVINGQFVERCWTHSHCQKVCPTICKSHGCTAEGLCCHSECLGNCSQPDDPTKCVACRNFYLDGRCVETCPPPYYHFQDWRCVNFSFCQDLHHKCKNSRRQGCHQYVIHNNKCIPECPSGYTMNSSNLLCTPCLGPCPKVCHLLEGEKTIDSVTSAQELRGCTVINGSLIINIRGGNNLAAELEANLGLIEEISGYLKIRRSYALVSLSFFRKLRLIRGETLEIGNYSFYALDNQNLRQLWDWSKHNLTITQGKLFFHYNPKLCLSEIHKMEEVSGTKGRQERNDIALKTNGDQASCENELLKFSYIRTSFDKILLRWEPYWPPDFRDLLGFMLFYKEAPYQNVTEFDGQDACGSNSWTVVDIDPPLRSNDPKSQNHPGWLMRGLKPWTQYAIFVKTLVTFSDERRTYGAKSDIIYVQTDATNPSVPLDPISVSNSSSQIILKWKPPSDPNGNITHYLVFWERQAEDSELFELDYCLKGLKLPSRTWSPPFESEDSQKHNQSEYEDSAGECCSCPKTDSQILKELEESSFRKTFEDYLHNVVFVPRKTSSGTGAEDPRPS", "sequence (P06213 763-1382 limits assumed)": "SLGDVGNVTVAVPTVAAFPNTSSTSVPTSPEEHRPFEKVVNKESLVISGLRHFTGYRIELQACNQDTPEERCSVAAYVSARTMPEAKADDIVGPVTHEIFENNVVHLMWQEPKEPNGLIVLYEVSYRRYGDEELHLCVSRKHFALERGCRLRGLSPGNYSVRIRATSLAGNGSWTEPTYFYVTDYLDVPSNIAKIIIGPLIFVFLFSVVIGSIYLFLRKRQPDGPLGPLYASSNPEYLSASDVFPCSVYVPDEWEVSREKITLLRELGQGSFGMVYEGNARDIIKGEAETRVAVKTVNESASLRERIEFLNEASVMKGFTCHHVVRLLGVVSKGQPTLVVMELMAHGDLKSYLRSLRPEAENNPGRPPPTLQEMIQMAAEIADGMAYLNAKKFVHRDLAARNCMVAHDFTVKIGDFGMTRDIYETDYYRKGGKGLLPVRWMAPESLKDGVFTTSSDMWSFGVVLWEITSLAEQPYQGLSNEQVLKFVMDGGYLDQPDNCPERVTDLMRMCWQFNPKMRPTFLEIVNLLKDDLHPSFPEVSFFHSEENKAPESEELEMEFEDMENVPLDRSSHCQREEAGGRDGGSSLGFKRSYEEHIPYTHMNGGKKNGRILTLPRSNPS", "experiment": "Inhibition of INSR (unknown origin) at 1 uM preincubated for 10 mins followed by substrate addition measured for 60 to 120 mins by HTRF assay relative to control", "settings": "time 70-130 min"}, "[20]": {"molecular_target": "Tyrosine-protein kinase ITK/TSK (Homo sapiens) (UniProt Q08881)", "sequence (Q08881 whole entry)": "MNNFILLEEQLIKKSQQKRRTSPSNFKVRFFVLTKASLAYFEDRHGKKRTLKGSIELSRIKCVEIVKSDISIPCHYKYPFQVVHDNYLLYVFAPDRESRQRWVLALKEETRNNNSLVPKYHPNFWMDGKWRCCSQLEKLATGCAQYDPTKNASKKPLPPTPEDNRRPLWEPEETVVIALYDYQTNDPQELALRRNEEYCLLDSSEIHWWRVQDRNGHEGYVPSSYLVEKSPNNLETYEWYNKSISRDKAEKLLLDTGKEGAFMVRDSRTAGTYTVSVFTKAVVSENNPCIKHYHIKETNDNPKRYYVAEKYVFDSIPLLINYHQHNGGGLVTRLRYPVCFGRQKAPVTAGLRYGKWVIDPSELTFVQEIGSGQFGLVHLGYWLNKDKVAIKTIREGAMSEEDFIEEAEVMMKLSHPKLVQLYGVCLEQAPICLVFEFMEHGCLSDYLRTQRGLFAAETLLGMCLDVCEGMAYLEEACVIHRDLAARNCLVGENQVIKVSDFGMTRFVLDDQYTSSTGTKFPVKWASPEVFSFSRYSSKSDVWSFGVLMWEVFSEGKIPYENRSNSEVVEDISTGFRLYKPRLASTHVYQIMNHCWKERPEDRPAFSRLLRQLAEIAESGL", "experiment": "Inhibition of ITK (unknown origin) at 1 uM preincubated for 10 mins followed by substrate addition measured for 60 to 120 mins by HTRF assay relative to control", "settings": "time 70-130 min"}, "Homo sapiens": {"species_on_record": "Homo sapiens", "experiment": "Inhibition of FYN a (unknown origin) at 1 uM preincubated for 10 mins followed by substrate addition measured for 60 to 120 mins by HTRF assay relative to control", "settings": "time 70-130 min"}, "[21]": {"molecular_target": "Tyrosine-protein kinase Mer (Homo sapiens) (UniProt Q12866)", "experiment": "Inhibition of MER (unknown origin) at 1 uM preincubated for 10 mins followed by substrate addition measured for 60 to 120 mins by HTRF assay relative to control", "settings": "time 70-130 min"}, "[22]": {"molecular_target": "Muscle, skeletal receptor tyrosine-protein kinase (Homo sapiens) (UniProt O15146)", "experiment": "Inhibition of MUSK (unknown origin) at 1 uM preincubated for 10 mins followed by substrate addition measured for 60 to 120 mins by HTRF assay relative to control", "settings": "time 70-130 min"}, "HL-60 [23]": {"system": "HL-60", "experiment": "Induction of apoptosis in human HL-60 cells assessed as early apoptosis cells at 1 uM incubated for 48 hrs by annexin V-FITC/PI staining based flow cytometry (reference value: 2.08 %)", "type": "functional"}, "[24]": {"molecular_target": "Vascular endothelial growth factor receptor 2 (Homo sapiens) (UniProt P35968)", "experiment": "Inhibition of KDR (unknown origin) at 1 uM preincubated for 10 mins followed by substrate addition measured for 60 to 120 mins by HTRF assay relative to control", "settings": "time 70-130 min"}, "[25]": {"molecular_target": "Tyrosine-protein kinase BTK (Homo sapiens) (UniProt Q06187)", "sequence (Q06187 whole entry)": "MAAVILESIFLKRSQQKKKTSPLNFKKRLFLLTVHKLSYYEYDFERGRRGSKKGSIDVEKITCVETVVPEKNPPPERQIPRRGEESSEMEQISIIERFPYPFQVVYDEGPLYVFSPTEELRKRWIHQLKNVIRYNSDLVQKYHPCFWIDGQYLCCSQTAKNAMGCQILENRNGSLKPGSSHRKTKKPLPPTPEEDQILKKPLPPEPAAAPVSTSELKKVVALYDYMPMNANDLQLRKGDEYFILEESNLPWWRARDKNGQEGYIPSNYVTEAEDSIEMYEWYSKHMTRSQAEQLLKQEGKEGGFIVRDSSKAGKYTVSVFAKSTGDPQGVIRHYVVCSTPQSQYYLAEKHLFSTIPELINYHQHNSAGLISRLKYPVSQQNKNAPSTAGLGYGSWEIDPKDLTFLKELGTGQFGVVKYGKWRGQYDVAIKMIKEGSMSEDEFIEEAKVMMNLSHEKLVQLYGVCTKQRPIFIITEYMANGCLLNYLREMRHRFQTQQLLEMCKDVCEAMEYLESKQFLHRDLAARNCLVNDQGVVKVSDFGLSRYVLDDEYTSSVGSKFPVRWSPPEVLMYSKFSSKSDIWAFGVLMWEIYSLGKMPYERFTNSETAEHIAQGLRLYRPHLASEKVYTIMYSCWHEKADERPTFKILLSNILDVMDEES", "experiment": "Inhibition of BTK (unknown origin) at 1 uM preincubated for 10 mins followed by substrate addition measured for 60 to 120 mins by HTRF assay relative to control", "settings": "time 70-130 min"}, "[26]": {"molecular_target": "T1, Cyclin-dependent kinase 8", "experiment": "Binding affinity to flag-tagged CDK8 (unknown origin) transfected in HEK-293T cells upto 4 uM incubated for 12 hrs by biotin pull down based Western blot analysis", "type": "cell-based"}},
  "note": "Active and inactive are the calls of the source. The rule behind the calls is not given here.",
  "data": [
    {"smiles": "NC(=O)c1cccc(-c2cnc3[nH]ccc3c2)c1", "values": [
      {"measurement": "MRT", "setting": "[1]", "value": 1.5, "unit": "h"},
      {"measurement": "viability at 10 µM", "setting": "HL-60 [2]", "value": 37.8, "unit": "%"},
      {"measurement": "inhibition", "setting": "[3]", "value": 2.33, "unit": "%"},
      {"measurement": "inhibition", "setting": "[4]", "value": 19.1, "unit": "%"},
      {"measurement": "inhibition", "setting": "[5]", "value": 0, "unit": "%"},
      {"measurement": "inhibition", "setting": "[6]", "value": 14.1, "unit": "%"},
      {"measurement": "inhibition", "setting": "[7]", "value": 3.99, "unit": "%"},
      {"measurement": "inhibition", "setting": "[8]", "value": 0, "unit": "%"},
      {"measurement": "T", "setting": "[9]", "value": 61, "unit": "°C"},
      {"measurement": "inhibition", "setting": "[10]", "value": 0, "unit": "%"},
      {"measurement": "Activity", "setting": "[11]", "value": "Active"},
      {"measurement": "inhibition", "setting": "[12]", "value": 13.3, "unit": "%"},
      {"measurement": "inhibition", "setting": "[13]", "value": 10.7, "unit": "%"},
      {"measurement": "inhibition", "setting": "[14]", "value": 8.89, "unit": "%"},
      {"measurement": "inhibition", "setting": "[15]", "value": 7, "unit": "%"},
      {"measurement": "inhibition", "setting": "[16]", "value": 12.7, "unit": "%"},
      {"measurement": "Activity", "setting": "C1498", "value": "Active"},
      {"measurement": "inhibition", "setting": "[17]", "value": 7.02, "unit": "%"},
      {"measurement": "inhibition", "setting": "[18]", "value": 21.6, "unit": "%"},
      {"measurement": "inhibition", "setting": "[19]", "value": 7.74, "unit": "%"},
      {"measurement": "inhibition", "setting": "[20]", "value": 0, "unit": "%"},
      {"measurement": "inhibition", "setting": "Homo sapiens", "value": 0, "unit": "%"},
      {"measurement": "inhibition", "setting": "[21]", "value": 0, "unit": "%"},
      {"measurement": "inhibition", "setting": "[22]", "value": 3.63, "unit": "%"},
      {"measurement": "Activity", "setting": "HL-60 [23]", "value": 79.4, "unit": "%"},
      {"measurement": "inhibition", "setting": "[24]", "value": 31.1, "unit": "%"},
      {"measurement": "inhibition", "setting": "[25]", "value": 5.27, "unit": "%"},
      {"measurement": "Activity", "setting": "[26]", "value": "Active"}
    ]}
  ]
}
